Test results taken from patent US7713994B2 (Wyeth LLC, priority 2005, dated 2010).

Key:
[1] = tested on: BT474; assay: Cytotoxicity assay (SRB), BT474; assay type: cell-based; conditions: Homo sapiens, BT-474, 144 h, BT474 cells, SRB, 6 days; read-out: In Vitro Cellular Activity IC50 BT474
Procedure, shortened: (§1)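 Percentage survival is derived from SRB absorbance (540 nm) versus untreated cells. Exposures were 3 days, except 6 days for BT474, at 37 °C and 7% CO2.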

[2] = tested on: LoVo; assay: Cytotoxicity assay (SRB), LoVo; assay type: cell-based; conditions: Homo sapiens, LoVo, 72 h, LoVo cells, SRB, three days; read-out: In Vitro Cellular Activity IC50 LOVO
Procedure, shortened: as §1

[3] = molecular target: T1, cyclin D1/cdk 4 enzyme (Homo sapiens, UniProt P11802); assay: CDK4 ELISA kinase assay (phospho-Rb ser 795 detection); assay type: biochemical; conditions: In Vitro Enzyme Assays, 200 μM ATP, read-out: CDK4 IC50
T1 construct: made in house; host or cells: Sf9 insect cells, recombinant baculovirus
Procedure, shortened: (§2)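 Partially purified Sf9-expressed cyclin D1/CDK4, cyclin E/CDK2 or cyclin B/CDK1 phosphorylated plate-bound GST-Rb C-terminal fragment with 200 μM ATP at 30° C for 1 h.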

[4] = tested on: MCF-7; assay: Cytotoxicity assay (SRB), MCF-7; assay type: cell-based; conditions: Homo sapiens, MCF7, 72 h, MCF-7 cells, SRB, three days; read-out: In Vitro Cellular Activity IC50 MCF-7
Procedure, shortened: as §1

[5] = molecular target: T2, cyclin B/CDK1 enzyme (Homo sapiens, UniProt P06493); assay: CDK1 ELISA kinase assay (phospho-Rb ser 795 detection); assay type: biochemical; conditions: In Vitro Enzyme Assays, read-out: CDK1 IC50
T2 construct: purchased New England BioLabs; host or cells: Sf9 insect cells, recombinant baculovirus
Procedure, shortened: as §2

[6] = molecular target: T3, cyclin E/CDK2 enzyme (Homo sapiens, UniProt P24941); assay: CDK2 ELISA kinase assay (phospho-Rb ser 795 detection); assay type: biochemical; conditions: In Vitro Enzyme Assays, read-out: CDK2 IC50
T3 construct: made in house; host or cells: Sf9 insect cells, recombinant baculovirus
Procedure, shortened: as §2

[7] = tested on: HCT-116; assay: Cytotoxicity assay (SRB), HCT-116; assay type: cell-based; conditions: Homo sapiens, HCT-116, 72 h, HCT116 cells, SRB, three days; read-out: In Vitro Cellular Activity IC50 HCT116
Procedure, shortened: as §1

T1 sequence (P11802 whole entry, species assumed): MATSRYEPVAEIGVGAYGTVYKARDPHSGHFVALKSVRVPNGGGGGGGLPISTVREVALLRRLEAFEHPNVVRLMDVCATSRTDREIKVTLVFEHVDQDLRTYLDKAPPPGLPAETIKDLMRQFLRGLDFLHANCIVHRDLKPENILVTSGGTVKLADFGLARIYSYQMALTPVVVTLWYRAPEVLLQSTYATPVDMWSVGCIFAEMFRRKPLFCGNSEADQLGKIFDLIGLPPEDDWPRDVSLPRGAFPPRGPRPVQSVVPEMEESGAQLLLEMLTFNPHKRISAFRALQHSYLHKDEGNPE
T1 sequence (P24385 whole entry partner, species assumed): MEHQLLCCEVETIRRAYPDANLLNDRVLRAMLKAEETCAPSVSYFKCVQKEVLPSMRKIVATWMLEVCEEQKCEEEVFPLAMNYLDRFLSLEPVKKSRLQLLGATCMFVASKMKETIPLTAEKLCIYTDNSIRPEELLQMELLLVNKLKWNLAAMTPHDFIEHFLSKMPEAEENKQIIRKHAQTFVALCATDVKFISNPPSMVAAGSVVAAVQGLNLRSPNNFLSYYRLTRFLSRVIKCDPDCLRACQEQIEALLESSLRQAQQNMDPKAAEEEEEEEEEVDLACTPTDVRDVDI
T2 sequence (P06493 whole entry): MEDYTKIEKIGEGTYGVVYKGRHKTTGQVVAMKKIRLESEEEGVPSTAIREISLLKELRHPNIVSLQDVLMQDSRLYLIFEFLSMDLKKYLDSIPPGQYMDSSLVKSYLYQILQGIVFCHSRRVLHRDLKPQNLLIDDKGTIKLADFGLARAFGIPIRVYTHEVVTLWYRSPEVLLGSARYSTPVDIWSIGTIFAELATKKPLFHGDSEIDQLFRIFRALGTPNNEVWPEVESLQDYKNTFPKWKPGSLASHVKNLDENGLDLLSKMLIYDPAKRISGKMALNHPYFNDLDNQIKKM
T2 sequence (P14635 whole entry partner): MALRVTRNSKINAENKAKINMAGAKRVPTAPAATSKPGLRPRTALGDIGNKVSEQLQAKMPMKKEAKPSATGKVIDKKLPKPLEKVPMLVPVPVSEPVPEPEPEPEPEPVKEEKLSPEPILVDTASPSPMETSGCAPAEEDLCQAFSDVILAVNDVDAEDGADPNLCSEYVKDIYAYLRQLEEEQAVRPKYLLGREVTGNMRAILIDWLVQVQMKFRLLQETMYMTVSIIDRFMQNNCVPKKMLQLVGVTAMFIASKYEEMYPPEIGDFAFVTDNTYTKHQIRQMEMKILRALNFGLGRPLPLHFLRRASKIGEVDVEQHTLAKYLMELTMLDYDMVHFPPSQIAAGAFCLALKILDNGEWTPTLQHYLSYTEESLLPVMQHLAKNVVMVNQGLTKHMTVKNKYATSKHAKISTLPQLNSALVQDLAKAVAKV

melting point | IC50 [3] | IC50 [5] | IC50 [6] | Structure (SMILES) | IC50 [1] | IC50 [2] | IC50 [4] | IC50 [7]
214 to 215 °C | 140 nM | 39700 nM | > 50000 nM | C[C@@H]1CN(c2ccc(N/C=C3\C(=O)NC(=O)c4ccc(-c5ccsc5)cc43)cc2F)C[C@H](C)N1 [Example 325, (4Z)-4-[({4-[(3R,5S)-3,5-Dimethylpiperazin-1-yl]-3-fluorophenyl}amino)methylene]-6-thien-3-ylisoquinoline-1,3(2H,4H)-dione] | 1200 nM | 2400 nM | 1000 nM | 720 nM
182 to 183 °C | 9200 nM | 31400 nM | > 50000 nM | C[C@@H]1CN(c2ccc(N/C=C3\C(=O)NC(=O)c4ccc(-c5ccc(F)cc5)cc43)cc2F)C[C@H](C)N1 [Example 326, (4Z)-4-[({4-[(3R,5S)-3,5-Dimethylpiperazin-1-yl]-3-fluorophenyl}amino)methylene]-6-(4-fluorophenyl)isoquinoline-1,3(2H,4H)-dione] | 980 nM | 3700 nM | 1800 nM | 1000 nM
217 to 218 °C | 60 nM | > 50000 nM | > 50000 nM | CN1CCC(c2ccc(N/C=C3\C(=O)NC(=O)c4ccc(-c5ccsc5)cc43)cc2)CC1 [Example 327, (4Z)-4-({[4-(1-Methylpiperidin-4-yl)phenyl]amino}methylene)-6-thien-3-ylisoquinoline-1,3(2H,4H)-dione] | 2500 nM | 2900 nM | 2200 nM | 1500 nM
206 to 207 °C | 770 nM | > 50000 nM | > 50000 nM | CN1CCN(c2ccc(N/C=C3\C(=O)NC(=O)c4ccc(-n5cccc5)cc43)cc2F)CC1 [Example 328, (4Z)-4-({[3-Fluoro-4-(4-methylpiperazin-1-yl)phenyl]amino}methylene)-6-(1H-pyrrol-1-yl)isoquinoline-1,3(2H,4H)-dione] | 1600 nM | 8700 nM | 1900 nM | 2400 nM
130 to 131 °C | 200 nM | > 50000 nM | > 50000 nM | COC[C@H]1CCCN1Cc1ccc(N/C=C2\C(=O)NC(=O)c3ccc(-c4ccoc4)cc32)cc1 [Example 330, (4Z)-6-(3-Furyl)-4-{[(4-{[(2R)-2-(methoxymethyl)pyrrolidin-1-yl]methyl}phenyl)amino]methylene}isoquinoline-1,3(2H,4H)-dione] | 1000 nM | 2300 nM | 690 nM | 2100 nM
95 to 96 °C | 170 nM | > 50000 nM | > 50000 nM | COC[C@H]1CCCN1Cc1ccc(N/C=C2\C(=O)NC(=O)c3ccc(-c4ccsc4)cc32)cc1 [Example 331, (4Z)-4-{[(4-{[(2R)-2-(Methoxymethyl)pyrrolidin-1-yl]methyl}phenyl)amino]methylene}-6-thien-3-ylisoquinoline-1,3(2H,4H)-dione] | 3300 nM | 3000 nM | 1700 nM | 1500 nM
209 to 211 °C (dec.) | 120 nM | 21300 nM | 2200 nM | COc1cnc(CN/C=C2\C(=O)NC(=O)c3ccc(Br)cc32)cc1O [Example 332, 6-Bromo-4-{[(4-hydroxy-5-methoxy-pyridin-2-ylmethyl)-amino]-methylene}-4H-isoquinoline-1,3-dione] | 540 nM | 1300 nM | 3200 nM | 3500 nM
217 to 218 °C | 460 nM | > 50000 nM | > 50000 nM | CN1CCC(c2ccc(N/C=C3\C(=O)NC(=O)c4ccc(Br)cc43)cc2)CC1 [Example 344, (4Z)-6-Bromo-4-({[4-(1-methylpiperidin-4-yl)phenyl]amino}methylene)isoquinoline-1,3(2H,4H)-dione] | 4200 nM | 2800 nM | 1600 nM | 2600 nM
227 to 228 °C | 15400 nM | 28300 nM | 43400 nM | COc1ccc(-c2ccc3c(c2)/C(=C/Nc2ccc(N4C[C@@H](C)N[C@@H](C)C4)c(F)c2)C(=O)NC3=O)cc1 [Example 345, (4Z)-4-[({4-[(3R,5S)-3,5-Dimethylpiperazin-1-yl]-3-fluorophenyl}amino)methylene]-6-(4-methoxyphenyl)isoquinoline-1,3(2H,4H)-dione] | 910 nM | 1200 nM | 1400 nM | 940 nM
175 to 176 °C | 180 nM | > 50000 nM | > 50000 nM | C[C@@H]1CN(c2cncc(N/C=C3\C(=O)NC(=O)c4ccc(-c5ccoc5)cc43)c2)C[C@H](C)N1 [Example 346, (4Z)-4-[({5-[(3R,5S)-3,5-Dimethylpiperazin-1-yl]pyridin-3-yl}amino)methylene]-6-(3-furyl)isoquinoline-1,3(2H,4H)-dione] | 960 nM | 2100 nM | 1400 nM | 1900 nM
198 to 199 °C | 5 nM | 6700 nM | 1500 nM | CN(C)c1ccc(CN/C=C2\C(=O)NC(=O)c3ccc(I)cc32)cc1O [Example 347, (4Z)-4-({[4-(Dimethylamino)-3-hydroxybenzyl]amino}methylene)-6-iodoisoquinoline-1,3(2H,4H)-dione] | 2400 nM | 2700 nM | 2200 nM | 3100 nM
178 to 179 °C | 130 nM | > 50000 nM | > 50000 nM | CC(=O)N1CCC(c2ccc(N/C=C3\C(=O)NC(=O)c4ccc(-c5ccoc5)cc43)cc2)CC1 [Example 351, (4Z)-4-({[4-(1-Acetylpiperidin-4-yl)phenyl]amino}methylene)-6-(3-furyl)isoquinoline-1,3(2H,4H)-dione] | 1100 nM | 2700 nM | 2100 nM | 3000 nM
195 to 196 °C | 360 nM | > 50000 nM | > 50000 nM | Cc1cc(N/C=C2\C(=O)NC(=O)c3ccc(-c4ccoc4)cc32)cnc1N1C[C@@H](C)N[C@@H](C)C1 [Example 355, (4Z)-4-[({6-[(3R,5S)-3,5-Dimethylpiperazin-1-yl]-5-methylpyridin-3-yl}amino)methylene]-6-(3-furyl)isoquinoline-1,3(2H,4H)-dione] | 1700 nM | 2000 nM | 1400 nM | 1200 nM
219 to 220 °C | 390 nM | > 50000 nM | > 50000 nM | Cc1cc(N/C=C2\C(=O)NC(=O)c3ccc(-c4ccsc4)cc32)cnc1N1C[C@@H](C)N[C@@H](C)C1 [Example 356, (4Z)-4-[({6-[(3R,5S)-3,5-Dimethylpiperazin-1-yl]-5-methylpyridin-3-yl}amino)methylene]-6-thien-3-ylisoquinoline-1,3(2H,4H)-dione] | 3000 nM | 2800 nM | 2700 nM | 1600 nM
